Experimental data reported in ChEMBL document CHEMBL2440076, “New triarylpyrazoles as broad-spectrum anticancer agents: design, synthesis, and biological evaluation” (Eur J Med Chem, 2013).

Columns and labels:
[1] = test system: BT-549; test: Growth inhibition of human BT549 cells assessed as cell growth at 10 uM after 48 hrs by sulforhodamine B assay; type: functional; details: BT-549, 48 h, read-out: Activity
[2] = Growth inhibition of human Hs 578T cells assessed as cell growth at 10 uM after 48 hrs by sulforhodamine B assay; type: functional; details: read-out: Activity
[3] = test system: MCF7; test: Growth inhibition of human MCF7 cells assessed as cell growth at 10 uM after 48 hrs by sulforhodamine B assay; type: functional; details: MCF7, 48 h, read-out: Activity
[4] = test system: DU-145; test: Growth inhibition of human DU145 cells assessed as cell growth at 10 uM after 48 hrs by sulforhodamine B assay; type: functional; details: DU-145, 48 h, read-out: Activity
[5] = test system: SN12C; test: Growth inhibition of human SN12C cells assessed as cell growth at 10 uM after 48 hrs by sulforhodamine B assay; type: functional; details: read-out: Activity
[6] = test system: CAKI-1; test: Growth inhibition of human CAKI-1 cells assessed as cell growth at 10 uM after 48 hrs by sulforhodamine B assay; type: functional; details: CAKI-1, 48 h, read-out: Activity
[7] = test system: SW-620; test: Growth inhibition of human SW620 cells after 48 hrs by sulforhodamine B assay; type: functional; details: SW-620, 48 h; for CC50: read-out: LC50 (the source's name)
[8] = test system: KM12; test: Growth inhibition of human KM12 cells after 48 hrs by sulforhodamine B assay; type: functional, cell-based; details: KM12, 48 h; for CC50: read-out: LC50 (the source's name)
[9] = test system: NCI-H522; test: Growth inhibition of human NCI-H522 cells after 48 hrs by sulforhodamine B assay; type: functional; details: NCI-H522, 48 h
[10] = test system: NCI-H460; test: Growth inhibition of human NCI-H460 cells after 48 hrs by sulforhodamine B assay; type: functional; details: NCI-H460, 48 h
[11] = test system: NCI-H322M; test: Growth inhibition of human NCI-H322M cells after 48 hrs by sulforhodamine B assay; type: functional; details: for CC50: read-out: LC50 (the source's name)
[12] = test system: A549; test: Growth inhibition of human A549/ATCC cells after 48 hrs by sulforhodamine B assay; type: functional; details: A549, 48 h
[13] = test system: RPMI-8226; test: Growth inhibition of human RPMI8226 cells after 48 hrs by sulforhodamine B assay; type: functional, cell-based; details: RPMI-8226, 48 h; for CC50: read-out: LC50 (the source's name)
[14] = test system: K562; test: Growth inhibition of human K562 cells after 48 hrs by sulforhodamine B assay; type: functional; details: K562, 48 h; for CC50: read-out: LC50 (the source's name)
[15] = test system: CCRF-CEM; test: Growth inhibition of human CCRF-CEM cells after 48 hrs by sulforhodamine B assay; type: functional
[16] = test system: RXF 393; test: Growth inhibition of human RXF393 cells assessed as cell growth at 10 uM after 48 hrs by sulforhodamine B assay; type: functional; details: RXF 393, 48 h, read-out: Activity
[17] = test system: ACHN; test: Growth inhibition of human ACHN cells assessed as cell growth at 10 uM after 48 hrs by sulforhodamine B assay; type: functional; details: read-out: Activity
[18] = test system: OVCAR-5; test: Growth inhibition of human OVCAR5 cells assessed as cell growth at 10 uM after 48 hrs by sulforhodamine B assay; type: functional; details: OVCAR-5, 48 h, read-out: Activity
[19] = test system: OVCAR-4; test: Growth inhibition of human OVCAR4 cells assessed as cell growth at 10 uM after 48 hrs by sulforhodamine B assay; type: functional; details: OVCAR-4, 48 h, read-out: Activity
[20] = test system: UACC-62; test: Growth inhibition of human UACC62 cells assessed as cell growth at 10 uM after 48 hrs by sulforhodamine B assay; type: functional; details: UACC-62, 48 h, read-out: Activity
[21] = test system: IGROV-1; test: Growth inhibition of human IGROV1 cells assessed as cell growth at 10 uM after 48 hrs by sulforhodamine B assay; type: functional; details: IGROV-1, 48 h, read-out: Activity
[22] = test system: UACC-257; test: Growth inhibition of human UACC257 cells assessed as cell growth at 10 uM after 48 hrs by sulforhodamine B assay; type: functional; details: UACC-257, 48 h, read-out: Activity
[23] = test system: U-251; test: Growth inhibition of human U251 cells assessed as cell growth at 10 uM after 48 hrs by sulforhodamine B assay; type: functional; details: U-251, 48 h, read-out: Activity
[24] = test system: NCI-H322M; test: Growth inhibition of human NCI-H322M cells assessed as cell growth at 10 uM after 48 hrs by sulforhodamine B assay; type: functional; details: read-out: Activity
[25] = test system: BT-549; test: Growth inhibition of human BT549 cells after 48 hrs by sulforhodamine B assay; type: functional; details: BT-549, 48 h
[26] = test system: MCF7; test: Growth inhibition of human MCF7 cells after 48 hrs by sulforhodamine B assay; type: functional; details: MCF7, 48 h
[27] = test system: DU-145; test: Growth inhibition of human DU145 cells after 48 hrs by sulforhodamine B assay; type: functional; details: DU-145, 48 h
[28] = test system: UO-31; test: Growth inhibition of human UO31 cells after 48 hrs by sulforhodamine B assay; type: functional; details: UO-31, 48 h; for CC50: read-out: LC50 (the source's name)
[29] = test system: RXF 393; test: Growth inhibition of human RXF393 cells after 48 hrs by sulforhodamine B assay; type: functional; details: RXF 393, 48 h
[30] = test system: A498; test: Growth inhibition of human A498 cells after 48 hrs by sulforhodamine B assay; type: functional, cell-based; details: A498, 48 h; for CC50: read-out: LC50 (the source's name)
[31] = test system: OVCAR-8; test: Growth inhibition of human OVCAR8 cells after 48 hrs by sulforhodamine B assay; type: functional; details: OVCAR-8, 48 h; for CC50: read-out: LC50 (the source's name)
[32] = test system: OVCAR-5; test: Growth inhibition of human OVCAR5 cells after 48 hrs by sulforhodamine B assay; type: functional; details: OVCAR-5, 48 h
[33] = test system: IGROV-1; test: Growth inhibition of human IGROV1 cells after 48 hrs by sulforhodamine B assay; type: functional; details: IGROV-1, 48 h
[34] = test system: K562; test: Growth inhibition of human K562 cells assessed as cell growth at 10 uM after 48 hrs by sulforhodamine B assay; type: functional; details: K562, 48 h, read-out: Activity
[35] = test system: CCRF-CEM; test: Growth inhibition of human CCRF-CEM cells assessed as cell growth at 10 uM after 48 hrs by sulforhodamine B assay; type: functional; details: read-out: Activity

Which results are given for `COc1cc(-c2nn(-c3cccc(NC(=O)c4cccc(C(F)(F)F)c4)c3)cc2-c2ccncc2)ccc1Cl`?
growth at 10 µM [1]: 26%; growth at 10 µM [2]: -5.69%; growth at 10 µM [3]: 3.58%; growth at 10 µM [4]: 2.16%; growth at 10 µM [5]: 34.4%; growth at 10 µM [6]: 44.7%; GI50 [7]: 2.31 µM; TGI [7]: > 50 µM; CC50 [7]: > 50 µM; GI50 [8]: 1.66 µM; TGI [8]: > 50 µM; CC50 [8]: > 50 µM; GI50 [9]: 1.05 µM; LC50 (concentration killing 50% of cells) [9]: > 50 µM; TGI [9]: 3.85 µM; GI50 [10]: 1.45 µM; LC50 [10]: > 50 µM; TGI [10]: 9.27 µM; GI50 [11]: 10.8 µM; TGI [11]: > 50 µM; CC50 [11]: > 50 µM; GI50 [12]: 1.87 µM; LC50 (concentration killing 50% of starting cells) [12]: > 50 µM; TGI [12]: > 50 µM; GI50 [13]: 1.57 µM; IC50 [13]: 1.57 µM; TGI [13]: 26.6 µM; CC50 [13]: > 50 µM; GI50 [14]: 1.4 µM; TGI [14]: > 50 µM; CC50 [14]: > 50 µM; GI50 [15]: 1.45 µM; LC50 [15]: > 50 µM; TGI [15]: > 50 µM; growth at 10 µM [16]: -42.8%; growth at 10 µM [17]: 31.6%; growth at 10 µM [18]: 49.4%; growth at 10 µM [19]: 46.5%; growth at 10 µM [20]: 27.2%; growth at 10 µM [21]: 34%; growth at 10 µM [22]: 34.5%; growth at 10 µM [23]: 13.1%; growth at 10 µM [24]: 58.1%; GI50 [25]: 2.87 µM; LC50 (50% lethal concentration) [25]: > 50 µM; TGI [25]: 46.8 µM; GI50 [26]: 1.43 µM; LC50 [26]: > 50 µM; TGI [26]: > 50 µM; GI50 [27]: 1.76 µM; LC50 [27]: > 50 µM; TGI [27]: 32.1 µM; GI50 [28]: 0.968 µM; TGI [28]: > 50 µM; CC50 [28]: > 50 µM; GI50 [29]: 0.811 µM; LC50 (concentration killing 50% of cells) [29]: > 50 µM; TGI [29]: 3.15 µM; GI50 [30]: 0.687 µM; IC50 [30]: 0.69 µM; TGI [30]: 2.78 µM; CC50 [30]: > 50 µM; GI50 [31]: 2 µM; TGI [31]: > 50 µM; CC50 [31]: > 50 µM; GI50 [32]: 4.01 µM; LC50 (concentration killing 50% of cells) [32]: > 50 µM; TGI [32]: > 50 µM; GI50 [33]: 1.83 µM; LC50 (concentration killing 50% of cells) [33]: > 50 µM; TGI [33]: > 50 µM; growth at 10 µM [34]: 6.11%; growth at 10 µM [35]: 3.1%

What does the source list for `O=C(Nc1cccc(-n2cc(-c3ccncc3)c(-c3ccc(Cl)c(O)c3)n2)c1)Nc1cc(C(F)(F)F)cc(C(F)(F)F)c1`?
growth at 10 µM [1]: -36%; growth at 10 µM [2]: -26%; growth at 10 µM [3]: 2.71%; growth at 10 µM [4]: -28.2%; growth at 10 µM [5]: -36.1%; growth at 10 µM [6]: 8.94%; GI50 [7]: 1.3 µM; TGI [7]: 5.11 µM; CC50 [7]: 23.4 µM; GI50 [8]: 0.506 µM; IC50 [8]: 0.51 µM; TGI [8]: 1.43 µM; CC50 [8]: 4.06 µM; GI50 [9]: 0.724 µM; LC50 (concentration killing 50% of cells) [9]: 12.8 µM; TGI [9]: 2.51 µM; GI50 [10]: 0.413 µM; LC50 [10]: 4.86 µM; TGI [10]: 1.48 µM; GI50 [11]: 1.31 µM; TGI [11]: 5.39 µM; CC50 [11]: 23.6 µM; GI50 [12]: 0.298 µM; LC50 (concentration killing 50% of starting cells) [12]: 11.4 µM; TGI [12]: 1.69 µM; GI50 [13]: 0.477 µM; IC50 [13]: 0.48 µM; TGI [13]: > 50 µM; CC50 [13]: > 50 µM; GI50 [14]: 0.433 µM; TGI [14]: 3.93 µM; CC50 [14]: > 50 µM; GI50 [15]: 0.789 µM; LC50 [15]: > 50 µM; TGI [15]: 6.78 µM; growth at 10 µM [16]: -66.7%; growth at 10 µM [17]: 8.48%; growth at 10 µM [18]: -32.9%; growth at 10 µM [19]: 0.87%; growth at 10 µM [20]: -65.6%; growth at 10 µM [21]: 4.8%; growth at 10 µM [22]: -50.9%; growth at 10 µM [23]: -83.8%; growth at 10 µM [24]: 5.11%; GI50 [25]: 1.09 µM; LC50 (50% lethal concentration) [25]: 4.11 µM; TGI [25]: 2.12 µM; GI50 [26]: 0.54 µM; LC50 [26]: 31.5 µM; TGI [26]: 5.79 µM; GI50 [27]: 1.25 µM; LC50 [27]: 17.4 µM; TGI [27]: 5.62 µM; GI50 [28]: 0.647 µM; TGI [28]: 1.9 µM; CC50 [28]: 6.6 µM; GI50 [29]: 0.937 µM; LC50 (concentration killing 50% of cells) [29]: 10.7 µM; TGI [29]: 2.49 µM; GI50 [30]: 0.792 µM; IC50 [30]: 0.79 µM; TGI [30]: 4.33 µM; CC50 [30]: 16 µM; GI50 [31]: 0.563 µM; TGI [31]: 5.92 µM; CC50 [31]: 43.7 µM; GI50 [32]: 0.875 µM; LC50 (concentration killing 50% of cells) [32]: 4.7 µM; TGI [32]: 2.03 µM; GI50 [33]: 0.896 µM; LC50 (concentration killing 50% of cells) [33]: 38.2 µM; TGI [33]: 3.55 µM; growth at 10 µM [34]: -19.6%; growth at 10 µM [35]: -16%
